Assay results from article PMC11050087, “Polyphenols from Maackia amurensis Heartwood Protect Neuronal Cells from Oxidative Stress and Prevent Herpetic Infection” (International Journal of Molecular Sciences, 2024).
Several values for one entry are separate records, joined by “and”; a condition that tells them apart may be missing. Equal entries are not always repeated.

Legend:
[1] = system: 6-OHDA-treated Neuro-2a cells; assay: ROS analysis in 6-OHDA-treated cells (H2DCF-DA); format: cell-based, murine; conditions: 6-OHDA 120 µM; for reduction of ROS levels in 6-OHDA-treated Neuro-2a cells: compound 1 µM
Procedure: We studied the effect of polyphenolic compounds set on ROS levels in 6-OHDA-treated Neuro-2a cells (Figure 5a–d).
Figure 5 The effect of polyphenolic compounds isolated from M. amurensis heartwood on ROS levels in Neuro-2a cells treated with 6-OHDA (120 μM) (a–d). Polyphenolic compounds isolated from M. amurensis heartwood were used at concentrations 10, 1, 0.1 μM. The data are presented as means ± SEM of three independent replicates.
After 24 h of adhesion, Neuro-2a cells (5 × 10^4 cells/mL) were incubated with polyphenolic compounds at concentrations of 0.1, 1, and 10 µM for 1 h. Then, 120 µM of 6-OHDA or 1 mM of PQ were added to each well, and cells were incubated for 1 h. To study the ROS formation, 20 µL of 2,7-dichlorodihydrofluorescein diacetate solution (H2DCF-DA, Sigma-Aldrich, St. Louis, MO, USA) were added to each well, so that the final concentration was 10 µM. Then, the microplate was incubated for 30 min at 37 °C.

HSV-1 [2] = assay: Virucidal activity, RT-PCR assay (HSV-1 pretreated with compounds); format: cell-based, HSV-1 strain L2; conditions: for Ct: 72 h; for −ΔCt: vs virus control; for activity at 0.1 µg/mL / activity at 1 µg/mL / activity at 10 µg/mL / log reduction at 0.1 µg/mL / log reduction at 1 µg/mL / log reduction at 10 µg/mL: Human alphaherpesvirus 1, 72 h; for activity at 0.1 µg/mL / activity at 1 µg/mL / activity at 10 µg/mL: read-out: 2^−ΔCt; for log reduction at 0.1 µg/mL / log reduction at 1 µg/mL / log reduction at 10 µg/mL: read-out: log10
HSV-1 [3] = assay: Virucidal activity, CPE inhibition assay (HSV-1 pretreated with compounds); format: cell-based, HSV-1 strain L2; conditions: for IC50: Human alphaherpesvirus 1, virus pretreated with compound (virucidal), Vero cells, 100 TCID50/mL; for SI: ratio of CC50 to IC50, virucidal scheme

Oc1ccc(/C=C/c2cc(O)cc(O)c2)cc1 [Compound 1, resveratrol]
reduction of ROS levels in 6-OHDA-treated Neuro-2a cells [1]: approximately 15% | Ct (HSV-1 [2]; 0.1 µg/mL): 18.1 ± 2.2 | −ΔCt (HSV-1 [2]; 0.1 µg/mL): 0 | Ct (HSV-1 [2]; 1 µg/mL): 20.4 ± 2.8 | −ΔCt (HSV-1 [2]; 1 µg/mL): −2.3 ± 0.2 | anti-HSV-1 activity by RT-PCR (in words) (HSV-1 [2]; 10 µg/mL): moderate anti-HSV-1 activity | Ct (HSV-1 [2]; 10 µg/mL): 24.6 ± 2.9 | −ΔCt (HSV-1 [2]; 10 µg/mL): −6.5 ± 0.8 | activity at 0.1 µg/mL (HSV-1 [2]): 100% | activity at 1 µg/mL (HSV-1 [2]): 20.3 ± 2.4% | activity at 10 µg/mL (HSV-1 [2]): 1.1 ± 0.14% | log reduction at 0.1 µg/mL (HSV-1 [2]): 0 | log reduction at 1 µg/mL (HSV-1 [2]): 0.7 ± 0.09 | log reduction at 10 µg/mL (HSV-1 [2]): 1.9 ± 0.2 | IC50 (HSV-1 [3]; CPE assay): 9.6 µg/mL and 42.1 µM | SI (HSV-1 [3]): 12.8 ± 1.9

O=C1C[C@@H](c2ccc(O)cc2)Oc2cc(O)ccc21 [Compound 6, liquiritigenin]
reduction of ROS levels in 6-OHDA-treated Neuro-2a cells [1]: 15% | effect on ROS levels in 6-OHDA-treated Neuro-2a cells (in words) ([1]; compounds at 10, 1, 0.1 µM): dose-dependent effect | virucidal activity against HSV-1 by RT-PCR (in words) (HSV-1 [2]; 0.1, 1 and 10 µg/mL): did not demonstrate virucidal activity | virucidal activity against HSV-1 (in words) (HSV-1 [3]; CPE assay, virus pretreated with compound): did not show virucidal activity

Oc1cc(O)cc(/C=C/c2ccc3c(c2)O[C@H](c2cc(O)cc(O)c2)[C@@H](c2ccc(O)c(O)c2)O3)c1 [Compound 9, maackin]
Ct (HSV-1 [2]; 0.1 µg/mL): 18.6 ± 2.4 | −ΔCt (HSV-1 [2]; 0.1 µg/mL): −0.50 ± 0.05 | inhibition of HSV-1 replication by RT-PCR (in words) (HSV-1 [2]; 1 µg/mL): inhibited the replication of HSV-1 | Ct (HSV-1 [2]; 1 µg/mL): 25.9 ± 2.8 | −ΔCt (HSV-1 [2]; 1 µg/mL): −7.8 ± 0.9 | reduction in viral DNA (HSV-1 [2]; 10 µg/mL): 4.6 log10 | Ct (HSV-1 [2]; 10 µg/mL): 33.3 ± 4.3 | −ΔCt (HSV-1 [2]; 10 µg/mL): −15.2 ± 1.8 | activity at 0.1 µg/mL (HSV-1 [2]): 70.7 ± 9.2% | activity at 1 µg/mL (HSV-1 [2]): 0.449 ± 0.06% | activity at 10 µg/mL (HSV-1 [2]): 0.00266 ± 0.0003% | log reduction at 0.1 µg/mL (HSV-1 [2]): 0.15 ± 0.02 | log reduction at 1 µg/mL (HSV-1 [2]): 2.3 ± 0.3 | log reduction at 10 µg/mL (HSV-1 [2]): 4.6 ± 0.6 | IC50 (HSV-1 [3]; CPE assay): 2.4 µg/mL and 4.9 µM | SI (HSV-1 [3]): 112.3 and 112.3 ± 13.5

Oc1ccc(/C=C/c2cc(O)cc3c2[C@H](c2cc(O)cc(O)c2)[C@@H](c2ccc(O)c(O)c2)O3)cc1 [Compound 13, scirpusin A]
reduction of ROS levels in 6-OHDA-treated Neuro-2a cells [1]: 43% | Ct (HSV-1 [2]; 0.1 µg/mL): 18.6 ± 2.4 | −ΔCt (HSV-1 [2]; 0.1 µg/mL): −0.50 ± 0.05 | inhibition of HSV-1 replication by RT-PCR (in words) (HSV-1 [2]; 1 µg/mL): inhibited the replication of HSV-1 | Ct (HSV-1 [2]; 1 µg/mL): 25.8 ± 3.3 | −ΔCt (HSV-1 [2]; 1 µg/mL): −7.7 ± 0.8 | reduction in viral DNA (HSV-1 [2]; 10 µg/mL): 3.9 log10 | Ct (HSV-1 [2]; 10 µg/mL): 31.2 ± 3.7 | −ΔCt (HSV-1 [2]; 10 µg/mL): −13.1 ± 1.6 | activity at 0.1 µg/mL (HSV-1 [2]): 70.7 ± 9.2% | activity at 1 µg/mL (HSV-1 [2]): 0.481 ± 0.06% | activity at 10 µg/mL (HSV-1 [2]): 0.0114 ± 0.001% | log reduction at 0.1 µg/mL (HSV-1 [2]): 0.15 ± 0.02 | log reduction at 1 µg/mL (HSV-1 [2]): 2.3 ± 0.3 | log reduction at 10 µg/mL (HSV-1 [2]): 3.9 ± 0.5 | IC50 (HSV-1 [3]; CPE assay): 2.6 µg/mL and 5.5 µM
